Experimental data taken from the supplement of paper PMC4862054.

What was measured:
DU-4475 = experiment: normalised viability (% of control), CellTiter-Blue; higher = more viable cells (100 = DMSO, 0 = benzethonium chloride kill control); conditions: 1 nM; incubation time: 72 h
Experimental: (§1)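 DSRT, CellTiter-Blue viability, 72 h incubation. Signal is normalised to DMSO and benzethonium chloride controls. Value is the normalised response at dose 1.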

Hs578T [1] = experiment: as above; conditions: 1 nM; incubation time: 72 h
Experimental: as §1

MFM-223 [2] = experiment: as above; conditions: 1 nM; incubation time: 72 h
Experimental: as §1

MDA-MB-468 [3] = experiment: as above; conditions: 1 nM; incubation time: 72 h
Experimental: as §1

MDA-MB-436 [4] = experiment: as above; conditions: 1 nM; incubation time: 72 h
Experimental: as §1

MDA-MB-231 [5] = experiment: as above; conditions: 1 nM; incubation time: 72 h
Experimental: as §1

MDA-MB-453 = experiment: as above; conditions: 1 nM; incubation time: 72 h
Experimental: as §1

CAL-85-1 [6] = experiment: as above; conditions: 1 nM; incubation time: 72 h
Experimental: as §1

HDQ-P1 [7] = experiment: as above; conditions: 1 nM; incubation time: 72 h
Experimental: as §1

HCC1937 [8] = experiment: as above; conditions: 1 nM; incubation time: 72 h
Experimental: as §1

BT-474 [9] = experiment: as above; conditions: 1 nM; incubation time: 72 h
Experimental: as §1

CAL-148 [10] = experiment: as above; conditions: 1 nM; incubation time: 72 h
Experimental: as §1

CAL-51 [11] = experiment: as above; conditions: 1 nM; incubation time: 72 h
Experimental: as §1

CAL-120 = experiment: as above; conditions: 1 nM; incubation time: 72 h
Experimental: as §1

BT-549 [12] = experiment: as above; conditions: 1 nM; incubation time: 72 h
Experimental: as §1

HCC1143 = experiment: as above; conditions: 1 nM; incubation time: 72 h
Experimental: as §1

HCC1599 [13] = experiment: as above; conditions: 1 nM; incubation time: 72 h
Experimental: as §1

SK-BR-3 [14] = experiment: as above; conditions: 1 nM; incubation time: 72 h
Experimental: as §1

Hs578T [15] = experiment: normalised viability (% of control), CellTiter-Blue; higher = more viable cells (about 100 = DMSO control); conditions: 100 nM; incubation time: 72 h
Experimental: (§2)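 DSRT, CellTiter-Blue viability, 72 h incubation. Signal is normalised to DMSO and benzethonium chloride controls. Value is the normalised response at dose 3.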

MFM-223 [16] = experiment: as above; conditions: 100 nM; incubation time: 72 h
Experimental: as §2

MDA-MB-468 [17] = experiment: as above; conditions: 100 nM; incubation time: 72 h
Experimental: as §2

MDA-MB-436 [18] = experiment: as above; conditions: 100 nM; incubation time: 72 h
Experimental: as §2

MDA-MB-231 [19] = experiment: as above; conditions: 100 nM; incubation time: 72 h
Experimental: as §2

CAL-85-1 [20] = experiment: as above; conditions: 10 nM; incubation time: 72 h
Experimental: as §2

HDQ-P1 [21] = experiment: as above; conditions: 10 nM; incubation time: 72 h
Experimental: as §2

HCC1937 [22] = experiment: as above; conditions: 100 nM; incubation time: 72 h
Experimental: as §2

BT-474 [23] = experiment: as above; conditions: 100 nM; incubation time: 72 h
Experimental: as §2

CAL-148 [24] = experiment: as above; conditions: 10 nM; incubation time: 72 h
Experimental: as §2

CAL-51 [25] = experiment: as above; conditions: 10 nM; incubation time: 72 h
Experimental: as §2

BT-549 [26] = experiment: as above; conditions: 100 nM; incubation time: 72 h
Experimental: as §2

HCC1599 [27] = experiment: as above; conditions: 100 nM; incubation time: 72 h
Experimental: as §2

SK-BR-3 [28] = experiment: as above; conditions: 100 nM; incubation time: 72 h
Experimental: as §2

| Compound | normalised viability (DU-4475) [%] | normalised viability (Hs578T [1]) [%] | normalised viability (MFM-223 [2]) [%] | normalised viability (MDA-MB-468 [3]) [%] | normalised viability (MDA-MB-436 [4]) [%] | normalised viability (MDA-MB-231 [5]) [%] | normalised viability (MDA-MB-453) [%] | normalised viability (CAL-85-1 [6]) [%] | normalised viability (HDQ-P1 [7]) [%] | normalised viability (HCC1937 [8]) [%] | normalised viability (BT-474 [9]) [%] | normalised viability (CAL-148 [10]) [%] | normalised viability (CAL-51 [11]) [%] | normalised viability (CAL-120) [%] | normalised viability (BT-549 [12]) [%] | normalised viability (HCC1143) [%] | normalised viability (HCC1599 [13]) [%] | normalised viability (SK-BR-3 [14]) [%] | normalised viability (Hs578T [15]) [%] | normalised viability (MFM-223 [16]) [%] | normalised viability (MDA-MB-468 [17]) [%] | normalised viability (MDA-MB-436 [18]) [%] | normalised viability (MDA-MB-231 [19]) [%] | normalised viability (CAL-85-1 [20]) [%] | normalised viability (HDQ-P1 [21]) [%] | normalised viability (HCC1937 [22]) [%] | normalised viability (BT-474 [23]) [%] | normalised viability (CAL-148 [24]) [%] | normalised viability (CAL-51 [25]) [%] | normalised viability (BT-549 [26]) [%] | normalised viability (HCC1599 [27]) [%] | normalised viability (SK-BR-3 [28]) [%] |
| --- | --- | --- | --- | --- | --- | --- | --- | --- | --- | --- | --- | --- | --- | --- | --- | --- | --- | --- | --- | --- | --- | --- | --- | --- | --- | --- | --- | --- | --- | --- | --- | --- |
| Nc1ccccc1NC(=O)c1ccc(CNc2nccc(-c3cccnc3)n2)cc1 [Mocetinostat] | 91.3 | 113 | 91.2 | 92 | 99.2 | 110 | 92.5 | 91.8 | 84.2 | 90.8 | 107 | 107 | 93.6 | 81.7 | 117 | 91.1 | 92.2 | 93 | 80.8 | 80.7 | 129 | 81.2 | 84.3 | 91.2 | 117 | 79.2 | 95.1 | 111 | 98.2 | 81.6 | 86.9 | 83.9 |
| Cc1ccc(Nc2nccc(N(C)c3ccc4c(C)n(C)nc4c3)n2)cc1S(N)(=O)=O [Pazopanib] | 98.9 | 94.8 | 90 | 106 | 95.8 | 97.7 | 106 | 93.6 | 72.8 | 77.9 | 93.2 | 89.3 | 103 | 78.5 | 110 | 87.1 | 103 | 105 | 86.5 | 71.7 | 104 | 88.3 | 94.3 | 95.6 | 93.8 | 94 | 99.7 | 88.3 | 104 | 96.9 | 108 | 78.7 |
| O=C(CCBr)N1CCN(C(=O)CCBr)CC1 [Pipobroman] | 111 | 95.3 | 82.8 | 95 | 107 | 97.8 | 108 | 96 | 99.3 | 87.4 | 98.9 | 115 | 112 | 89.1 | 83.2 | 94.7 | 103 | 92.1 | 91.4 | 98.8 | 98 | 93 | 94.7 | 110 | 99.4 | 87.9 | 119 | 100 | 110 | 86.4 | 93.4 | 108 |
